According to patent US8092789B1, “Indian meal moth attractant” (The United States of America, as represented by the …, priority 2009, dated 2012):

Test system: Plodia interpunctella adult females
Test: flight tunnel bioassay of attraction (upwind progress score)
Type: in vivo
Parameters: key to Score (flight tunnel bioassay): 0.25 per quarter line crossed; final 0.25 for contacting test subject
Conditions: for Score (flight tunnel bioassay): day 22 Plodia females, ten females per test, observed ten minutes, 0.25 per quarter line crossed and for contact
Protocol: All tests were conducted in a clear, acrylic flight chamber 75 cm (L), 22 cm (W), 24 cm (H). Room air was pushed through the chamber with a 115 volt, 0.35 Amp motor-driven roller fan. Air speed was maintained at 0.4 m/sec. The chamber was positioned horizontally on a table in a walk-in environmental chamber maintained at 30° C. and 65% R.H. The only light was provided by a 25 Watt red filtered incandescent bulb centrally positioned 90 cm above tunnel floor and providing 9.0 Lux at the floor center.
Insects used were laboratory reared Plodia interpuctella. Ten 4-day old adult females from a general rearing box were selected and transferred into a 7 dram screened plastic vial for each test. Tests were performed only during the first four hours of the scotophase. Test subjects consisted of either natural products held in a glass Petri dish (Kimax, 5 cm diameter) or liquid volatiles pipetted onto a filter paper disc (Whatman #3, 2.3 cm) held off the floor by a plastic disc (5 cm diameter). These were placed upwind. A test began when the vial containing the moths was placed on the floor down-wind and the lid of the vial was removed. Distance between vial and test material was 62 cm. […] A final 0.25 was scored for actually contacting the test subject. Individual moths were tested only once.
Volatiles from natural products were collected for twenty-four hours by passing commercial, compressed nitrogen through a 150 cm^3 glass collection chamber (Analytical Research Systems) connected by tubing to an inert filter trap of 20 mg SuperQ (Alltech Associates). The collected volatiles were eluted with 150 ul dichloromethane and then bioassayed in the flight tunnel and analyzed by GC-MS. The SuperQ filter traps were rinsed with 200 ul dichloromethane immediately before each use.

CCCCCCOC(C)=O [hexyl acetate]
Score (flight tunnel bioassay) (Table 1): 3.60 | Score (flight tunnel bioassay) (Table 2): 3.60

CC1(C)C2CCC1(C)C(O)C2 (stereo not drawn) [borneol]
Score (flight tunnel bioassay) (Table 1): 2.83 | Score (flight tunnel bioassay) (Table 2): 2.83

CCOc1cc(C=O)ccc1O [ethyl vanillin]
Score (flight tunnel bioassay) (Table 1): 2.63 | Score (flight tunnel bioassay) (Table 2): 2.63

C=CC(=C)CCC=C(C)C [myrcene]
Score (flight tunnel bioassay) (Table 1): 2.95 | Score (flight tunnel bioassay) (Table 2): 2.95

CCCCCC=CCCC(=O)OCC [ethyl 4-decenoate]
Score (flight tunnel bioassay) (Table 1): 3.50 | Score (flight tunnel bioassay) (Table 2): 3.50

CCCCC(C)=O [2-hexanone]
Score (flight tunnel bioassay) (Table 1): 3.63 | Score (flight tunnel bioassay) (Table 2): 3.63

CCCCCCCC(=O)OC [methyl octanoate]
Score (flight tunnel bioassay) (Table 1): 2.91 | Score (flight tunnel bioassay) (Table 2): 2.91

CCCCCCCCCCC [undecane]
attractiveness alone (dilutions in dichloromethane, FIG. 3): unattractive alone

CC1=CC[C@H]2[C@H]3[C@@H]1[C@]2(C)CC[C@H]3C(C)C [a-copaene]
Score (flight tunnel bioassay) (Table 1): 3.07 | Score (flight tunnel bioassay) (Table 2): 3.07

CCC/C=C/CO [trans-2-hexen-1-ol]
Score (flight tunnel bioassay) (Table 1): 3.00 | Score (flight tunnel bioassay) (Table 2): 3.00

Cc1ccc(C(C)C)cc1 [cymene]
Score (flight tunnel bioassay) (Table 1): 3.00 | Score (flight tunnel bioassay) (Table 2): 3.00
